“Also recorded” adds a separate entry of the source.

The test system of data set [1] is SU-DIPG-XIII FL cells. Kind of data set: Matrigel invasion assay (Boyden chamber) of DIPG cells. In kind it is cell-based, human. The note with it: DIPG cells expressing the shRNA; for DIPG invasion toward SVZ hNPC CM or the PTN complex: vs scrambled control; for baseline DIPG invasion toward unconditioned hNPC media: vs scrambled shRNA. The method, then:
To test for chemoattraction and invasion toward neural precursor cell conditioned media or another candidate chemoattractant, a single-cell suspension of 100,000 DIPG cells in Tumor Stem Media (TSM) base (with B27 (−A) and heparin, without growth factors) was seeded in the top inserts of BioCoat growth factor reduced Matrigel invasion chambers (Corning, Bedford, Mass.), after rehydration of the inserts. Chemoattractant media was added to the bottom of the chamber. All conditions were plated in triplicate. After 72 hours, media was aspirated, and the non-invading cells on top of the layer of Matrigel were scrubbed off. The invading cells were fixed in 4% paraformaldehyde and then stained with 0.1% crystal violet in 10% methanol in distilled water. The number of invading cells was quantified by the intensity of the crystal violet dye on the invading side of the Matrigel. The dye was collected in 10% acetic acid, and absorbance was measured at 595 nm.
To test the ROCK or HSP90 inhibitors in the Matrigel invasion assay, the inhibitors were added to the suspension of glioma cells in TSM base (with B27 (−A) and heparin) seeded in the top inserts at the appropriate concentrations, and neural precursor cell conditioned media was plated in the bottom chambers. The rest of the procedure was performed as described above.

Data set [2] deals with SU-DIPG-XIII FL cells. As to the kind of experiment: CellTiter-Glo cell viability assay. The note with it: base media without growth factors, vs scrambled control or no shRNA. In kind it is cell-based, human. The method, then: To assess cell viability, 5,000 DIPG cells per well were seeded in base media or full growth media in a 96-well plate. Inhibitors were added at the appropriate concentrations. After 72 hours, CellTiter-Glo reagent 2.0 was added at a 1:1 ratio, and cells were lysed. Luminescence was measured after stabilization of signal for 10 minutes at room temperature.

For the next data set, the system named is PTPRZ1. As to the kind of experiment: Knockdown of PTPRZ1 in DIPG cells (qPCR, Western blot). Type of data set: cell-based, human. The note with it: vs scrambled shRNA control or no shRNA; for PTPRZ1 gene expression: qPCR. The method, then:
Samples were run on Bio-Rad Mini-Protean TGX precast gels (Bio-Rad, Hercules, Calif.), and the protein was transferred onto polyvinylidene fluoride (PVDF) membranes. Membranes were blocked with 5% bovine serum albumin (BSA) in TBST for 1 hour, and incubated in primary antibodies diluted in 1% BSA/TBST overnight at 4° C. Primary antibodies used were: mouse anti-pleiotrophin (1:100; Santa Cruz Biotechnology, Santa Cruz, Calif.), goat anti-SPARC (1:100; R&D Systems, Minneapolis, Minn.), goat anti-SPARCL1 ([…]; R&D Systems, Minneapolis, Minn.), rabbit anti-HSP90B (GeneTex, Irvine, Calif.), rabbit anti-GRP78 (1:500, Abcam, Cambridge, Mass.), rabbit anti-PTPRZ (Thermo Fisher, Waltham, Mass.), and rabbit beta-actin (1:2000; Cell Signaling, Danvers, Mass.). Secondary antibodies conjugated to horseradish peroxidase (HRP) were added for 1 hour at room temperature. Secondary antibodies used were: goat anti-rabbit IgG-HRP (Cell Signaling, Danvers, Mass.), horse anti-mouse IgG-HRP (Cell Signaling, Danvers, Mass.), and donkey anti-goat IgG-HRP (Santa Cruz Biotechnology, Santa Cruz, Calif.). Proteins were visualized using Clarity Western ECL Substrate (Bio-Rad, Hercules, Calif.).
Cells or tissue were lysed and homogenized in TRIzol Reagent (Life Technologies, Carlsbad, Calif.) and RNA was extracted according to reagent protocol. RNA was treated with dsDNase, and cDNA was synthesized using Thermo Scientific Maxima First Strand cDNA Synthesis Kit for RT-qPCR with dsDNase (Thermo Fisher Scientific K1671). RT-PCR was performed on Eppendorf Mastercycler Realplex2 using Universal SYBR Green Supermix (BioRad, Hercules, Calif.). Differential expression was determined using the deltaCt method. Primers used were as follows: […]
For lentiviral infection, DIPG cells or neural precursor cells were exposed to shRNA-expressing lentivirus for 16 hours. Puromycin was added 48 hours after infection to select for virally infected cells. After removal of puromycin, shRNA-treated neural precursor cells were grown for 7 days (with addition of media on day 3-4) for generation of conditioned media. […]
Background: Quantitative PCR measures a nucleic acid by following its amplification.

The subject of data set [3] is SU-DIPG-XIII FL cells. As to the kind of experiment: Orthotopic xenograft of PTPRZ1 knockdown DIPG cells. Type of data set: in vivo, NSG mice. The note with it: knockdown cells xenografted to the pons, vs scrambled shRNA control cells; for DIPG cells invading the SVZ: 8 weeks following xenograft. The method, then: (§1) NSG mice at age P34-36 were orthotopically xenografted with SU-DIPG-XIII frontal lobe CMV-GFP-luciferase cells, in a similar procedure to as previously described (Grasso et al., supra; Venkatesh et al. (2015) Cell 161, 803-816). Briefly, a single-cell suspension of SU-DIPG-XIII frontal lobe CMV-GFP-luciferase cells at passage 16-19 was prepared in sterile HBSS immediately before beginning the xenograft procedure. 600,000 cells in 3 μL were stereotactically injected into the pons of the left hemisphere of NSG mice, through a 31-gauge burr hole. Stereotactic coordinates used were: 1 mm lateral to midline, 0.8 mm posterior to lambda suture, and 5 mm deep. Cells were injected at a rate of 0.4 μL/min using a digital pump and a 31-gauge Hamilton syringe. After infusion of cells, the syringe needle was kept in place for 2 minutes, and then withdrawn manually at a rate of 0.875 mm/min to minimize the backflow of cells.
(§2) Mice were imaged using an IVIS Spectrum to ensure tumor engraftment and monitor tumor size. Mice were anesthetized under 1% isoflurane, intraperitoneally injected with luciferin (15 mg/kg), and imaged for bioluminescence every minute until the peak total flux was reached.
For lentiviral infection, DIPG cells or neural precursor cells were exposed to shRNA-expressing lentivirus for 16 hours. Puromycin was added 48 hours after infection to select for virally infected cells. After removal of puromycin, shRNA-treated neural precursor cells were grown for 7 days (with addition of media on day 3-4) for generation of conditioned media. After removal of puromycin, shRNA-treated DIPG cells were grown for at least one passage before experimental use.

A further data set relates to RhoA. Kind of data set: G-LISA RhoA activation assay in DIPG cells. In kind it is cell-based, human. The note with it: DIPG cells expressing the shRNA exposed to SVZ hNPC CM or the PTN complex; vs scrambled shRNA. The method, then:
(§3) SU-DIPG-XIII frontal lobe cells were starved in TSM base (without B27 (−A) supplement, heparin, or growth factors) for 48 hours prior to treatment. After treatment, cells were lysed in the RhoA activation assay kit cell lysis buffer (Cytoskeleton, Denver, Colo.). Lysates were incubated on ice for 1 minute, clarified by centrifugation at 10,000×g, 4° C. for 1 minute, and the supernatants were snap-frozen and stored immediately at −80° C. Protein concentrations were measured by the BCA protein assay (Thermo Scientific, Waltham, Mass.), and samples were diluted to 0.5 mg/mL by the addition of cell lysis buffer.
RhoA activation assays were performed using the G-LISA RhoA absorbance-based activation assay (Cytoskeleton, Denver, Colo.). Lysate samples were incubated in a 96-well plate with pre-linked Rho GTP-binding protein for 30 minutes at 4° C. shaking at 400 rpm. Wells were incubated in anti-RhoA primary antibody (1:250) at room temperature for 45 minutes shaking at 400 rpm. Secondary HRP-labeled antibody (1:62.5) was added at room temperature for 45 minutes shaking at 400 rpm. Results were visualized by addition of HRP detection reagents for 12 minutes at 37° C., and the absorbance was read at 490 nm. All assays were performed in triplicate.

The subject of another data set is ROCK. As to the kind of experiment: Rho-associated kinase (ROCK) activity assay in DIPG cells. The note with it: DIPG cells expressing the shRNA exposed to SVZ hNPC CM or the PTN complex; vs scrambled shRNA. In kind it is cell-based, human. The procedure: as §3
ROCK activation assays were performed using the Rho-associated kinase (ROCK) activity assay (Millipore, Bedford, Mass.). Cell lysates were incubated in wells of a myosin phosphatase target subunit 1 (MYPT1) pre-coated 96-well plate, for 30 minutes at 30° C. with moderate shaking. Wells were incubated in anti-phospho-MYPT1(Thr696) primary antibody (1:1000) for 1 hour with moderate shaking. Goat anti-rabbit IgG HRP secondary antibody (1:2000) was added for 1 hour with moderate shaking. Results were visualized with TMB/E substrate, incubating in the dark for 10 minutes, and absorbance was read at 450 nm. All assays were performed in triplicate.

Data set [4] relates to SU-DIPG-XIII FL cells. As to the kind of experiment: shRNA-expressing lentivirus injected into the SVZ of orthotopically xenografted mice. In kind it is in vivo, NSG mice. The note with it: vs scrambled shRNA control; for DIPG cells invading the SVZ: 16 weeks following pontine xenograft. The procedure:
as §1
(§4) Mice used for shRNA lentivirus studies received shRNA-expressing lentivirus in the SVZ at P27-29 and DIPG cells in the left pons at P34-36. For lentiviral injections, 2 μL of shRNA-expressing lentivirus were stereotactically injected into the SVZ. Stereotactic coordinates used were: 1.3 mm lateral to midline, 0.1 mm posterior to bregma suture, and 2 mm deep. Virus was injected and the needle was withdrawn according to the same procedure as described above.
as §2
For quantification of DIPG invasion of the SVZ after knock down of targets in the SVZ, 5 NSG mice per group were injected with shRNA-expressing lentivirus in bilateral SVZs and orthotopically xenografted with SU-DIPG-XIII FL in the left pons. Mice were perfused for analysis 16 weeks after xenograft. A 1:6 series of coronal slices from each mouse brain was immunostained and imaged, and the number of GFP^+ HNA^+ glioma cells within 200 μm of the lateral ventricles in all slices containing lateral ventricles was manually counted.
For quantification of neural stem/precursor cells in the SVZ after knock down of PTN in the SVZ, a 1:6 series of coronal slices from each mouse was immunostained and imaged, and the number of Sox2^+ neural stem/precursor cells in a 20×Z-stack was manually counted. The density of Sox2^+ cells was calculated as cells/mm^3.

The next data set deals with HSP90B. As to the kind of experiment: Knockdown of HSP90B expression in the mouse SVZ. Type of data set: in vivo. The note with it: lentivirus injected into the SVZ; vs scrambled shRNA control. The procedure:
as §4
Mice were intraperitoneally injected with Avertin (tribromoethanol) for anesthesia, and then transcardially perfused with 20 mL of ice-cold PBS. Brains were dissected out and fixed in 4% paraformaldehyde in PBS overnight at 4° C., and were then transferred to 30% sucrose in PBS for cryoprotection. Brains were embedded in Tissue-Tek O.C.T. (Sakura, Torrance, Calif.). Brains from mice older than P10 were sliced into 40 μm coronal or sagittal sections using a sliding microtome (Microm HM450; Thermo Scientific, Waltham, Mass.). Brains from mice age P0 to P10 were sliced into 25 μm coronal sections using a cryostat (Leica Biosystems CM3050 S; 1058 Wetzlar, Germany). For immunohistochemistry, a 1 in 6 series of 25 μm or 40 μm sections was incubated in blocking solution (3% normal donkey serum, 0.3% Triton X-100 in TBS) at room temperature for 1 hour. […]

Setting [5] is: listed as shRNA lentivirus targeting PTPRZ1.
The mark [6] stands for this setting: listed as shRNA-expressing lentivirus targeting the HSP90B1 gene.

As for “PTPRZ1 shRNA: lentivirus-expressed shRNA against human PTPRZ1, Sigma TRCN0000356374, SEQ ID NO: 13 (CCGGATACCTAAGTCTTCGTTAATACTCGAGTATTAACGAAGACTTAGGTATTTTTTG)”, the “DIPG invasion toward SVZ hNPC CM or the PTN complex” value was “partial abrogation of invasion” in the data set on SU-DIPG-XIII FL cells [1] and “partially abrogates DIPG invasion” with SU-DIPG-XIII FL cells [1] (setting [5]). Besides, the results for the “baseline DIPG invasion toward unconditioned hNPC media” value with SU-DIPG-XIII FL cells [1] and with SU-DIPG-XIII FL cells [1] (setting [5]) were “substantially decreases baseline invasion” and “decrease in baseline DIPG invasion”, respectively. For the same substance, the figures for the “cell viability of DIPG cells expressing the shRNA” value in the data set with SU-DIPG-XIII FL cells [2] and in the data set on SU-DIPG-XIII FL cells [2] (setting [5]) were “mildly decreases cell viability” and “mild decrease in cell viability”, respectively. Also, in the data set with PTPRZ1 (Western blot), the PTPRZ protein levels result is “effective knock down”. The PTPRZ1 gene expression result is “Robust shRNA-mediated knockdown of PTPRZ1 expression” with PTPRZ1 and “effective knock down of PTPRZ1 gene expression” in the data set with PTPRZ1 (setting [5]). Further, the “DIPG cells invading the SVZ” value is listed as “significantly fewer cells expressing PTPRZ1 shRNA reached the SVZ” in the data set on SU-DIPG-XIII FL cells [3] and “fewer DIPG cells with knockdown of PTPRZ1 invaded the SVZ” in the data set with SU-DIPG-XIII FL cells [3] (setting [5]). Besides, in the data set with SU-DIPG-XIII FL cells [3], the “decrease of total tumor size (engraftment), bioluminescent signal on initial IVIS imaging” value was determined as 10 fold. Besides, in the data set with SU-DIPG-XIII FL cells [3], the “tumor growth over time” value is on record as “rate of growth was similar”. Further, the RhoA activation result with RhoA is “abrogation of RhoA and ROCK activation; also recorded: decreased activation of RhoA and ROCK”. In the data set on ROCK, the ROCK activation entry is “abrogation of RhoA and ROCK activation; also recorded: decreased activation of RhoA and ROCK”.

For “sh-HSP90B1: lentivirus-expressed shRNA against mouse HSP90B1, Sigma TRCN0000071925, SEQ ID NO: 12 (CCGGGCTATTCAGTTGGATGGGTTACTCGAGTAACCCATCCAACTGAATAGCTTTTTG)”, the results for the “DIPG cells invading the SVZ” value in the data set on SU-DIPG-XIII FL cells [4] and with SU-DIPG-XIII FL cells [4] (setting [6]) were “fewer orthotopically xenografted GFP^+ HNA^+ SU-DIPG-XIII FL cells invaded the SVZ” and “fewer DIPG cells invading the SVZ”, respectively. In addition, the “tumor engraftment (bioluminescent flux)” value in the data set on SU-DIPG-XIII FL cells [4] (listed as shRNA lentivirus targeting HSP90B1) is on record as “equivalent”; in the data set with SU-DIPG-XIII FL cells [4] (setting [6]) it was “no effect on initial tumor engraftment”. The “HSP90B expression in the SVZ” value in the data set with HSP90B is “low HSP90B expression after knockdown”.

(Values after patent US10550388B2, “Targeting pleiotrophin signaling to limit high-grade glioma invasion” (The Board of Trustees of the Leland Stanford Junior …, priority 2017, dated 2020).)
